Measurements from patent publication US20050244897A1, “Endothelial cells as diagnostic instrument in cardiovascular diseases” (priority 2002, published 2005).

Legend:
[1] = tested on: circulating apoptotic ECs; assay: Flow cytometry (FACS) of circulating apoptotic ECs in peripheral blood of patients with stable angina treated prospectively; type: in vivo, human
Protocol: (§1) In addition, 8 patients with stable angina were prospectively treated with atorvastatin (20 mg/day, four weeks).
The lysis of erythrocytes in 10 ml peripheral venous heparin blood was performed with the aid of a commercially available solution for lysis (Becton Dickinson, BD). The circulating ECs were then examined by means of 4-channel-FACS (Fluorescence Activated Cell Sorting)-analysis, using a suitably modified protocol according to the method of Mancuso et al. and Monestiroli et al. (Mancuso P., Burlini A., Pruneri G., Goldhirsch A., Martinelli G., Bertolini F. Blood. 2001; 97: 3658-3661; Monestiroli S., Mancuso P., Burlini A., Pruneri G., Dell'Agnola C., Gobbi A., Martinelli G., Bertolini F. Cancer Res. 2001; 61: 4341-4344) (FIG. 1). First, in the representation of the forward/sideward-scatter a regional window was defined, in order to exclude platelets and debris from the further analyses. Amongst the remaining cells, the number of the CD45^+-signals that were identified with a direct perCP-conjugated monoclonal antibody against human CD45 (BD) was quantified, in order to normalise each measured cellular population in view of the total number of the leukocytes in relation to the number of WBCs. In order to specifically detect mature ECs, only CD45^−-cells were analysed further by double staining with antibodies against the EC-specific epitope CD146 (MeI-CAM, MUC18, S-Endo-1; Shih I. M. J Pathol. 1999; 189: 4-11) (monoclonal mouse-antibody, directly FITC-conjugated; Chemicon) and against von Willebrandt-factor (vWF) (rabbit, Oncogene), followed by a PE-conjugated anti-rabbit secondary antibody. Alternatively, human KDR was detected with an anti-KDR-antibody of the mouse (Sigma), followed by a PE-conjugated anti-mouse secondary antibody in addition to vWF. CD45^−/CD146^+/vWF^+ or CD45^−/KDR^+/vWF^+-cells were defined as mature ECs. […]

LDL-cholesterol = assay: Serum lipid fractions (LDL-cholesterol) in patients with stable angina before and after treatment; type: in vivo, human
Protocol: as §1
In all patients serum was also collected at the time of examination for a determination of the concentrations of CRP and hsCRP (turbidimetric assay, Boehringer Mannheim and Ultrasensitive N Latex CRP Monotest, Behring, respectively) as well as serum lipid-fractions (Boehringer Mannheim).
Thus, it was prospectively examined whether a short-term treatment with atorvastatin (20 mg/day, four weeks) reduces the EC-apoptosis in patients with stable CAD.

CC(C)c1c(C(=O)Nc2ccccc2)c(-c2ccccc2)c(-c2ccc(F)cc2)n1CC[C@@H](O)C[C@@H](O)CC(=O)O [atorvastatin]
EC-apoptosis ([1]; patients with CAD, four week treatment period): profoundly reduces | number of circulating apoptotic ECs ([1]; patients with stable CAD (SA), n=8, 20 mg/day, four weeks, FIG. 3A): significantly reduced | proportion of apoptotic ECs of the total number of circulating ECs ([1]; patients with stable CAD (SA), n=8, 20 mg/day, four weeks, FIG. 3B): significantly reduced | LDL-cholesterol (mg/dl) post (LDL-cholesterol; n=8 patients with stable angina, after 20 mg/day for four weeks, pre value 155 ± 16, mean ± SEM): 86 ± 13 mg/dL | concentration of LDL-cholesterol (LDL-cholesterol; patients with stable CAD, 20 mg/day, four weeks, p<0.02): significantly reduced
